Reference: PubChem BioAssay (NCI)
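All cell lines were grown in 96-well plates and treated with compound for 48 hours. At the TGI there is no net growth.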

What was measured:
Assay in all cases: DTP human tumour cell line panel, 48 h
SF-268 CNS = test system: SF-268 CNS
HCT-116 colon = test system: HCT-116 colon
HCC-2998 colon = test system: HCC-2998 colon
COLO 205 colon = test system: COLO 205 colon
ACHN renal = test system: ACHN renal
HT29 colon = test system: HT29 colon
SK-MEL-28 melanoma = test system: SK-MEL-28 melanoma
A549 NSCLC = test system: A549 NSCLC
UACC-257 melanoma = test system: UACC-257 melanoma
SF-539 CNS = test system: SF-539 CNS
DU-145 prostate = test system: DU-145 prostate
MALME-3M melanoma = test system: MALME-3M melanoma
LOX IMVI melanoma = test system: LOX IMVI melanoma
HCT-15 colon = test system: HCT-15 colon
OVCAR-8 ovarian = test system: OVCAR-8 ovarian
SN12C renal = test system: SN12C renal
OVCAR-3 ovarian = test system: OVCAR-3 ovarian
SR leukemia = test system: SR leukemia
MDA-MB-231 breast = test system: MDA-MB-231 breast
IGROV1 ovarian = test system: IGROV1 ovarian
BT-549 breast = test system: BT-549 breast
K-562 leukemia = test system: K-562 leukemia
UO-31 renal = test system: UO-31 renal
SNB-19 CNS = test system: SNB-19 CNS
EKVX NSCLC = test system: EKVX NSCLC
HOP-92 NSCLC = test system: HOP-92 NSCLC
MDA-MB-435 = test system: MDA-MB-435
SW-620 colon = test system: SW-620 colon
PC-3 prostate = test system: PC-3 prostate
NCI-H23 lung = test system: NCI-H23 lung
SK-MEL-5 melanoma = test system: SK-MEL-5 melanoma
NCI/ADR-RES ovarian = test system: NCI/ADR-RES ovarian
A498 renal = test system: A498 renal
HS 578T breast = test system: HS 578T breast
SF-295 CNS = test system: SF-295 CNS
NCI-H226 lung = test system: NCI-H226 lung
HL-60(TB) leukemia = test system: HL-60(TB) leukemia
KM12 colon = test system: KM12 colon
MCF7 breast = test system: MCF7 breast
HOP-62 NSCLC = test system: HOP-62 NSCLC
NCI-H460 lung = test system: NCI-H460 lung
M14 melanoma = test system: M14 melanoma
RPMI-8226 leukemia = test system: RPMI-8226 leukemia
786-0 renal = test system: 786-0 renal
U251 CNS = test system: U251 CNS
OVCAR-4 ovarian = test system: OVCAR-4 ovarian
MDA-N = test system: MDA-N
TK-10 renal = test system: TK-10 renal
OVCAR-5 ovarian = test system: OVCAR-5 ovarian
SK-OV-3 ovarian = test system: SK-OV-3 ovarian
UACC-62 melanoma = test system: UACC-62 melanoma
SK-MEL-2 melanoma = test system: SK-MEL-2 melanoma
CAKI-1 renal = test system: CAKI-1 renal
NCI-H522 lung = test system: NCI-H522 lung
MOLT-4 leukemia = test system: MOLT-4 leukemia
CCRF-CEM leukemia = test system: CCRF-CEM leukemia
SNB-75 CNS = test system: SNB-75 CNS

Measured: TGI

O=c1cc(NNc2ccc3ccccc3c2)[nH]c(=S)[nH]1
46 µM: COLO 205 colon
82.1 µM: SF-539 CNS
38.3 µM: KM12 colon
69.5 µM: HL-60(TB) leukemia
41.1 µM: K-562 leukemia
46.4 µM: PC-3 prostate
34.1 µM: HCT-15 colon | OVCAR-3 ovarian
39.6 µM: 786-0 renal
62.1 µM: HOP-92 NSCLC
36.8 µM: SW-620 colon
80 µM: SF-268 CNS
98.3 µM: HOP-62 NSCLC
26 µM: LOX IMVI melanoma
30 µM: HT29 colon
66.6 µM: MCF7 breast
not listed: SK-OV-3 ovarian | UACC-62 melanoma | SK-MEL-2 melanoma | CAKI-1 renal | NCI-H522 lung | MOLT-4 leukemia | CCRF-CEM leukemia | SNB-75 CNS
> 100 µM: all other assays above

C=C1C[C@]23CC[C@@H]4C(CO)(CO)CC(=O)C[C@]4(C)[C@@H]2CC[C@H]1C3
35.9 µM: SNB-19 CNS
not listed: SK-MEL-5 melanoma | A498 renal | KM12 colon
> 100 µM: all other assays above

CC1(C)CC2=C(SC3C=CC=CC3N2)C(=O)C1C(=O)C(N)=O (stereo not given)
not listed: MALME-3M melanoma | SR leukemia | K-562 leukemia | A498 renal | RPMI-8226 leukemia
> 100 µM: all other assays above
